Patent US8796276B2, “Heterocyclic compounds for the treatment of neurological and psychological disorders” (Alkermes Pharma Ireland Limited, priority 2009, dated 2014)

How the values were obtained:
[1] = system: D-Amphetamine-induced locomotion; experiment: Pharmacodynamic study in amphetamine-induced locomotion model; details: D-AMPH 1.5 mg/kg IP
[2] = Pharmacokinetic evaluation of prodrugs in rats following intramuscular injection; format: in vivo, Male Sprague-Dawley rats; details: rat, IM injection, plasma drug concentration; dose (mg/kg) and excipients/formulation differ per table line
Method: Pharmakokinetic Evaluation of Prodrugs in Rats Following Intramuscular Injection
Male Sprague-Dawley rats (Charles River Laboratories, Wilmington, Mass.) were obtained. Approximately 24 rats were used in each study. Rats were approximately 350-375 g at time of arrival. Rats were housed 2 per cage with ad libitum chow and water. Environmental conditions in the housing room: 64-67° F., 30% to 70% relative humidity, and 12:12-h light:dark cycle. All experiments were approved by the institutional animal care and use committee.
Rats were dosed IM by means of a 25 gauge, ⅝ in. needle with 1 cc syringe 0.3 mL suspension was withdrawn from the vial containing the test compound (see Table E). The […] was injected in the muscles of the hind limb after anesthesia with isoflourane. Blood samples were collected via a lateral tail vein after brief anesthesia with Isoflurane. A 27½ G needle and 1 cc syringe without an anticoagulant was used for the blood collection. Approximately […] of whole blood was collected at each sampling time-point of 6 hours, 24 hours and 2, 5, 7, 9, 12, 14, 21, 28, 35 days after administration. Once collected, whole blood was immediately transferred to tubes containing K2 EDTA, inverted 10-15 times and immediately placed on ice. The tubes were centrifuged for 2 minutes at >14,000 g's (11500 RPMs using Eppendorf Centrifuge 5417C, F45-30-11 rotor) at room temperature to separate plasma. Plasma samples were transferred to labeled plain tubes (MICROTAINER®; MFG# BD5962) and stored frozen at <−70° C.
Drug concentrations in plasma samples were analyzed by liquid chromatography-mass spectroscopy using appropriate parameters for each compound. Half-life, volume of distribution, clearance, maximal concentration, and AUC were calculated by using WinNonlin Version 5.2 software.

[3] = PO oral oil solution, 0.66, 10 and 20 mg/rat
[4] = PO oral oil solution, at the higher dose of 20 mg

| SMILES | inhibition of increases in distance traveled caused by D-AMPH [1, 4] | AUC0-T [2] [ng·days/mL] | other results |
| --- | --- | --- | --- |
| CCCCCC(=O)OCN1C(=O)CCc2ccc(OCCCCN3CCN(c4cccc(Cl)c4Cl)CC3)cc21 [Compound 4, (7-(4-(4-(2,3-dichlorophenyl)piperazin-1-yl)butoxy)-2-oxo-3,4-dihydroquinolin-1(2H)-yl)methyl hexanoate] | – | – | dose dependence of inhibition of distance travelled [1, 3]: did not appear to be dose dependent; inhibition of increases in distance traveled caused by D-AMPH [1, 3]: significantly inhibited |
| CCCCCCCCCCCC(=O)OCN1C(=O)CCc2ccc(OCCCCN3CCN(c4cccc(Cl)c4Cl)CC3)cc21 [Compound 7, (7-(4-(4-(2,3-dichlorophenyl)piperazin-1-yl)butoxy)-2-oxo-3,4-dihydroquinolin-1(2H)-yl)methyl dodecanoate] | significantly inhibit | – | – |
| CCCCCCCCCCCCCC(=O)OCN1C(=O)CCc2ccc(OCCCCN3CCN(c4cccc(Cl)c4Cl)CC3)cc21 [Compound 8, (7-(4-(4-(2,3-dichlorophenyl)piperazin-1-yl)butoxy)-2-oxo-3,4-dihydroquinolin-1(2H)-yl)methyl tetradecanoate] | – | 666.1 | AUC0-14 [2]: 580.3 ng·days/mL |
| CNC(=O)OCN1C(=O)CCc2ccc(OCCCCN3CCN(c4cccc(Cl)c4Cl)CC3)cc21 [Compound 47, (7-(4-(4-(2,3-dichlorophenyl)piperazin-1-yl)butoxy)-2-oxo-3,4-dihydroquinolin-1(2H)-yl)methyl methylcarbamate] | significantly inhibit | – | – |
| CCOC(=O)OCN1C(=O)CCc2ccc(OCCCCN3CCN(c4cccc(Cl)c4Cl)CC3)cc21 [Compound 79, (7-(4-(4-(2,3-dichlorophenyl)piperazin-1-yl)butoxy)-2-oxo-3,4-dihydroquinolin-1(2H)-yl)methyl ethyl carbonate] | – | 940 | – |
